Measured values: patent publication US12485122B2, “Combination of palbociclib and adagrasib for lung cancer” (Mirati Therapeutics, Inc., priority 2018, dated 2025)

Legend:
Type in all cases: in vivo, nude/nude mice
[1] = system: LU6405 cells; assay: LU6405 tumor bearing mice, single agents and combination; settings: for Average Tumor Volume: Compound 478 100 mg/kg, palbociclib 130 mg/kg, 5 mice averaged
Procedure: (§1) Immunocompromised nude/nude mice were inoculated in the right hind flank with cells or patient derived tumor samples harboring a KRas G12C mutation. When tumor volumes reached between 200-400 mm^3 in size, the mice were divided into four groups of 5-12 mice each. The first group was administered vehicle only. […] The fourth group was administered the single agent dose of the KRas G12C inhibitor in combination with the single agent dose of the CDK 4/6 inhibitor. […] Tumor volumes were measured using a caliper every two-three days and tumor volumes are calculated by the formula: […].
In another experiment, on Day 0, 20 nude/nude mice were inoculated in the right hind limb with 5×10^6 LU6405 cells.

[2] = system: H2122 cells; assay: H2122 tumor bearing mice, single agents and combination; settings: for tumor growth inhibition: Day 23, single agent, Compound 478 100 mg/kg or palbociclib 130 mg/kg p.o. daily; for Average Tumor Volume: Compound 478 100 mg/kg, palbociclib 130 mg/kg, 5 mice averaged
Procedure: as §1
Similarly, 20 nude/nude mice were inoculated in the right hind limb with 5×10^6 H2122 cells.

[3] = system: SW1573 cells; assay: SW1573 tumor bearing mice, single agents and combination; settings: for tumor growth inhibition: Day 28, single agent, Compound 478 100 mg/kg or palbociclib 130 mg/kg p.o. daily; for Average Tumor Volume: Compound 478 100 mg/kg, palbociclib 130 mg/kg, 7 mice averaged
Procedure: as §1
For example, 28 nude/nude mice were inoculated in the right hind limb with 5×10^6 SW1573 cells.

[4] = Study Day 22, p.o. daily for 21 days
[5] = Study Day 24, p.o. daily for 21 days
[6] = Study Day 23, p.o. daily for 21 days

Row | Structure (SMILES) | Average Tumor Volume ([1]; Study Day 1, p.o. daily) [mm^3] | Average Tumor Volume ([1]; Study Day 4, p.o. daily) [mm^3] | Average Tumor Volume ([1]; Study Day 8, p.o. daily) [mm^3] | Average Tumor Volume ([1]; Study Day 11, p.o. daily) [mm^3] | Average Tumor Volume ([1]; Study Day 15, p.o. daily) [mm^3] | Average Tumor Volume ([1]; Study Day 18, p.o. daily) [mm^3] | Average Tumor Volume [1, 4] [mm^3] | Average Tumor Volume [1, 5] [mm^3] | tumor growth inhibition [2] [%] | Average Tumor Volume ([2]; Study Day 0, p.o. daily) [mm^3] | Average Tumor Volume ([2]; Study Day 2, p.o. daily) [mm^3] | Average Tumor Volume ([2]; Study Day 4, p.o. daily) [mm^3] | Average Tumor Volume ([2]; Study Day 7, p.o. daily) [mm^3] | Average Tumor Volume ([2]; Study Day 9, p.o. daily) [mm^3] | Average Tumor Volume ([2]; Study Day 11, p.o. daily) [mm^3] | Average Tumor Volume ([2]; Study Day 14, p.o. daily) [mm^3] | Average Tumor Volume ([2]; Study Day 16, p.o. daily) [mm^3] | Average Tumor Volume ([2]; Study Day 18, p.o. daily) [mm^3] | Average Tumor Volume ([2]; Study Day 21, p.o. daily) [mm^3] | Average Tumor Volume [2, 6] [mm^3] | other results
1 | C=C(F)C(=O)N1CCN(c2nc(OC[C@@H]3CCCN3C)nc3c2CCN(c2cccc4cccc(Cl)c24)C3)C[C@@H]1CC#N [Compound 478] | 256.06 | 308.98 | 324.46 | 329.09 | 310.21 | 290.88 | 257.34 | 249.19 | 85 | 325 | 340 | 338 | 381 | 462 | 480 | 493 | 541 | 537 | 547 | 547 | tumor growth inhibition ([1]; Day 24, single agent, Compound 478 100 mg/kg p.o. daily): 96%; tumor growth inhibition [3]: 71%; Average Tumor Volume ([3]; Study Day 0, p.o. daily): 357 mm^3; Average Tumor Volume ([3]; Study Day 6, p.o. daily): 404 mm^3; Average Tumor Volume ([3]; Study Day 9, p.o. daily): 435 mm^3; Average Tumor Volume ([3]; Study Day 14, p.o. daily): 523 mm^3; Average Tumor Volume ([3]; Study Day 16, p.o. daily): 575 mm^3; Average Tumor Volume ([3]; Study Day 18, p.o. daily): 607 mm^3; Average Tumor Volume ([3]; Study Day 21, p.o. daily): 754 mm^3; Average Tumor Volume ([3]; Study Day 23, p.o. daily): 758 mm^3; Average Tumor Volume ([3]; Study Day 25, p.o. daily): 741 mm^3; Average Tumor Volume ([3]; Study Day 28, p.o. daily): 785 mm^3
2 | CC(=O)c1c(C)c2cnc(Nc3ccc(N4CCNCC4)cn3)nc2n(C2CCCC2)c1=O [Palbociclib, 6-acetyl-8-cyclopentyl-5-methyl-2-((5-(piperazin-1-yl)pyridin-2-yl)amino)pyrido[2,3-d]pyrimidin-7(8H)-one] | 255.36 | 440.79 | 659.01 | 834.95 | 1165.80 | 1295.57 | 1363.40 | 1382.59 | 65 | 326 | 385 | 493 | 601 | 646 | 663 | 748 | 765 | 790 | 836 | 834 | tumor growth inhibition [3]: 40%; Average Tumor Volume ([3]; Study Day 0, p.o. daily): 356 mm^3; Average Tumor Volume ([3]; Study Day 3, p.o. daily): 444 mm^3; Average Tumor Volume ([3]; Study Day 6, p.o. daily): 484 mm^3; Average Tumor Volume ([3]; Study Day 9, p.o. daily): 508 mm^3; Average Tumor Volume ([3]; Study Day 11, p.o. daily): 515 mm^3; Average Tumor Volume ([3]; Study Day 14, p.o. daily): 748 mm^3; Average Tumor Volume ([3]; Study Day 16, p.o. daily): 807 mm^3; Average Tumor Volume ([3]; Study Day 18, p.o. daily): 706 mm^3; Average Tumor Volume ([3]; Study Day 21, p.o. daily): 926 mm^3; Average Tumor Volume ([3]; Study Day 23, p.o. daily): 1029 mm^3; Average Tumor Volume ([3]; Study Day 25, p.o. daily): 1167 mm^3; Average Tumor Volume ([3]; Study Day 28, p.o. daily): 1240 mm^3
